Measured values reported in article PMC6059433, “Discovery of fragments that target key interactions in the signal recognition particle (SRP) as potential leads for a new class of antibiotics” (PLoS ONE, 2018).

Target: T1, FtsY (FtsYNG) (Escherichia coli, UniProt P10121)
T1 construct: NG domain, 196–497 aa
Assay: SPR (positive control, […] MgCl2 in running buffer); […]-TROSY-HSQC titration
Format: binding

T1 sequence (P10121 196-497): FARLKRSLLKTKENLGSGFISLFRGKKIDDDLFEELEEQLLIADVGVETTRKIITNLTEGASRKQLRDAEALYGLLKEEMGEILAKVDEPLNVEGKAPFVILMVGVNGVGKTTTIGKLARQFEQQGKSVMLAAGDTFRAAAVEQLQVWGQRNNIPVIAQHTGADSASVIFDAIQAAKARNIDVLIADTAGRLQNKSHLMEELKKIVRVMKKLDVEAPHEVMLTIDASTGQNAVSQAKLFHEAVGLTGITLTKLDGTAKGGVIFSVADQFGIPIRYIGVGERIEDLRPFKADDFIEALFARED

Nc1nc2c(ncn2[C@@H]2O[C@H](COP(=O)(O)OP(=O)(O)NP(=O)(O)O)[C@@H](O)[C@H]2O)c(=O)[nH]1 [GMPPNP]
Kd: 280 ± 80 µM
